Experiments:
[1] = biological target: 5-HT sensitive adenylate cyclase; assay: Activation of 5-HT sensitive adenylate cyclase of the liver fluke (method of Markstein); format: biochemical; conditions: adenylate cyclase stimulated by serotonin
Source text: A group of compounds comprises compounds which are D₂ agonists without any antagonistic activity. Another group of compounds includes those compounds which are serotonin agonists, e.g. as indicated in standard in vitro binding tests and by activation of 5-HT sensitive adenylate cyclase of the liver fluke according to the method of R.Markstein, Neurochemical effects of some ergot derivatives: A basis for their antiparkinson actions. J.Neural transm 51:39, (1981).
Examples of such compounds include compound C and pergolide. Compound C, pergolide and 5-HT have efficacies of 90,80 and 100 respectively and pD₂ [log EC₅₀] of 6.9, 6.9 and 7.7 respectively in this test on adenylate cyclase stimulated by serotonin.

[2] = system: basal serum prolactin levels; assay: Lowering basal serum prolactin levels in the male rat (prolactin secretion inhibition); format: in vivo; conditions: Rattus norvegicus, 4 h, read-out: ID50 after 4 hours
Source text: Many of the above mentioned compounds are published as prolactin secretion inhibitors, some of which are extremely potent and have long lasting activity. The potency of the compounds as prolactin secretion inhibitors can be determined in standard tests, e.g. by lowering basal serum prolactin levels in the male rat.
Results with representative compounds include:-

adjuvant arthritis = assay: Freund's adjuvant arthritis in the rat, hind limb thickness; format: in vivo; conditions: 0.1 mg/kg/day s.c. osmotic pump
Method: One test model is a rodent model of developing autoimmune adjuvant arthritis. An inhibition of the development of adjuvant arthritis is observed.
In one variante, Myobacterium Butyricum purchased from Difco Laboratories, Detroit, Michigan, was prepared in an emulsion with paraffin subliquidium PHHVI (Siegried Zofingen, Switzerland) at a concentration of 6 mg/ml. During ether anaesthesia a volume of 0.1 ml of this emulsion was injected with a 21 g 1-1/2 inch needle intracutaneously at the base of the tail of male Sprague-Dawley rats (ca 150-175 g). Arthritis occurred in 95% to 100% of the hind legs in the positive control animals. The hind limb (mid-tibial region) thickness was measured with a linear guage (Mitutoyo) coupled to an electronic digital readout (Mitutoyo).
100% of a control group developed adjuvant arthritis. The compounds of the invention are administered by means of a sub-cutaneously sustained osmotic pump, over 7 days or 14 days to groups of 5 animals. Progression of the arthritis and the inhibiting effect of a representative compound, compound B, at 0.1 mg/kg/day are as follows:-

[3] = Acute toxicity (LD50) in the mouse; conditions: in vivo
Source text: (§1) Toxicity data for some of the comounds of the invention have been published. Such data may be determined by routine experimentation. TOXICITY DATA for representative compounds NTEL = No toxic effect level.

[4] = No toxic effect level (NTEL), repeated oral dosing in rats; conditions: rat, in vivo, 26 weeks, p.o.
Source text: as §1

[5] = No toxic effect level (NTEL) / tolerability, repeated oral dosing in dogs; conditions: dog, in vivo, no toxic effect level, 26 weeks, p.o.
Source text: as §1

## NCCc1c[nH]c2ccc(O)cc12 [Compound 5-HT]
[1]
  pD₂ [log EC₅₀]: 7.7
[1]; 5-HT = 100
  efficacies: 100

## CN1C[C@@H](NS(=O)(=O)N(C)C)C[C@@H]2c3cccc4c3c(cn4C)C[C@H]21 [Compound B, 1,6-dimethyl-8α-(N,N-dimethylsulphamoylamino)-ergoline-I]
[2]
  ED50: 0.003 mg/kg
Adjuvant arthritis; Day 0, 7 days dosing
  Hind Limb Thickness (mm): 6.1 mm
Adjuvant arthritis; Day 0, 14 days dosing
  Hind Limb Thickness (mm): 6.0 mm
Adjuvant arthritis; Day 3, 7 days dosing
  Hind Limb Thickness (mm): 6.2 mm
Adjuvant arthritis; Day 3, 14 days dosing
  Hind Limb Thickness (mm): 6.2 mm
Adjuvant arthritis; Day 6, 7 days dosing
  Hind Limb Thickness (mm): 6.2 mm
Adjuvant arthritis; Day 6, 14 days dosing
  Hind Limb Thickness (mm): 6.2 mm
Adjuvant arthritis; Day 9, 7 days dosing
  Hind Limb Thickness (mm): 6.5 mm
Adjuvant arthritis; Day 9, 14 days dosing
  Hind Limb Thickness (mm): 6.7 mm
Adjuvant arthritis; Day 12, 7 days dosing
  Hind Limb Thickness (mm): 6.9 mm
Adjuvant arthritis; Day 12, 14 days dosing
  Hind Limb Thickness (mm): 7.7 mm
Adjuvant arthritis; Day 15, 7 days dosing
  Hind Limb Thickness (mm): 7.6 mm
Adjuvant arthritis; Day 15, 14 days dosing
  Hind Limb Thickness (mm): 7.8 mm
Adjuvant arthritis; Day 18, 7 days dosing
  Hind Limb Thickness (mm): 7.9 mm
Adjuvant arthritis; Day 18, 14 days dosing
  Hind Limb Thickness (mm): 7.9 mm
Adjuvant arthritis; Day 21, 7 days dosing
  Hind Limb Thickness (mm): 8.2 mm
Adjuvant arthritis; Day 21, 14 days dosing
  Hind Limb Thickness (mm): 8.2 mm

## CCN(CC)S(=O)(=O)N[C@H]1C[C@@H]2c3cccc4c3c(cn4CC)C[C@H]2N(C)C1 [Compound D, N,N-diethyl-Nʹ-[(8α)-1-ethyl-6-methyl-ergolin-8-yl]-sulfamide]
[3]; iv, over 7 days, read-out: acute LD₅₀ (mouse) i.v.
  LD50 at 168 h: 44 mg/kg
[3]; po, over 14 days, read-out: acute LD₅₀ (mouse) p.o.
  LD50 at 336 h: 992 mg/kg
[4]
  NOAEL at 4368 h: 5 to 17 mg/kg/day
[5]
  NOAEL at 4368 h: 0.3 mg/kg/day

## CCCN1C[C@H](CSC)C[C@@H]2c3cccc4[nH]cc(c34)C[C@H]21 [pergolide, 6-n-propyl-8α-methylmercaptomethyl-ergoline-I]
[1]
  pD₂ [log EC₅₀]: 6.9
